How the values were obtained:
Assay in all cases: Greenhouse post-emergence weed control, percent injury vs untreated control
Type in all cases: in vivo
Conditions in all cases: 19 DAT
Galium aparine (GALAP) = test system: Galium aparine (GALAP)
Hordeum vulgare (HORVS) = test system: Hordeum vulgare (HORVS)
[1] = test system: Amaranthus Palmeri (AMAPA)
[2] = test system: Echinochloa crus-galli (ECHCG)
[3] = test system: Amaranthus tuberculatus (AMATU)
[4] = test system: Ambrosia artemisiifolia (AMBEL)

N#Cc1cnn(-c2nn3c(c2Cl)CCCC3)c1NCC1CC1 [cyclopyranyl, cyclopyranil]
Solo cyclopyranyl (6.25 g ai/ha) % activity (Galium aparine (GALAP); 6.25 g ai/ha): 65% | Solo cyclopyranyl (6.25 g ai/ha) % activity (Hordeum vulgare (HORVS); 6.25 g ai/ha): 15% | Solo cyclopyranyl (1.5625 g ai/ha) % activity ([1]; 1.5625 g ai/ha): 10% | Solo cyclopyranyl (3.125 g ai/ha) % activity ([1]; 3.125 g ai/ha): 10% | Solo cyclopyranyl (6.25 g ai/ha) % activity ([1]; 6.25 g ai/ha): 25% | Solo cyclopyranyl (6.25 g ai/ha) % activity ([2]; 6.25 g ai/ha): 25% | Solo cyclopyranyl (6.25 g ai/ha) % activity ([3]; 6.25 g ai/ha): 65%

C#CCN(C)c1c(C#N)cnn1-c1nn2c(c1Cl)CCCC2 [Pyraclonil]
Solo pyraclonil (3.125 g ai/ha) % activity (Hordeum vulgare (HORVS); 3.125 g ai/ha): 0% | Solo pyraclonil (3.125 g ai/ha) % activity ([1]; 3.125 g ai/ha): 30% | Solo Pyraclonil (6.25 g ai/ha) % activity ([1]; 6.25 g ai/ha): 20% | Solo pyraclonil (1.5625 g ai/ha) % activity ([4]; 1.5625 g ai/ha): 25% | Solo Pyraclonil (6.25 g ai/ha) % activity ([4]; 6.25 g ai/ha): 65% | Solo pyraclonil (1.5625 g ai/ha) % activity ([3]; 1.5625 g ai/ha): 20% | Solo Pyraclonil (6.25 g ai/ha) % activity ([3]; 6.25 g ai/ha): 35%

Oxadiargyl
Solo Oxadiargyl (3.125 g ai/ha) % activity ([1]; 3.125 g ai/ha): 40% | Solo Oxadiargyl (6.25 g ai/ha) % activity ([1]; 6.25 g ai/ha): 30% | Solo Oxadiargyl (3.125 g ai/ha) % activity ([4]; 3.125 g ai/ha): 20% | Solo Oxadiargyl (6.25 g ai/ha) % activity ([4]; 6.25 g ai/ha): 10% | Solo Oxadiargyl (3.125 g ai/ha) % activity ([2]; 3.125 g ai/ha): 15% | Solo Oxadiargyl (6.25 g ai/ha) % activity ([3]; 6.25 g ai/ha): 40%

CP(=O)(O)CCC(N)C(=O)O (racemic) [Glufosinate, (2RS)-2-amino-4-[hydroxy(methyl)phosphinoyl]butyric acid]
inhibition at 50 g/ha (Galium aparine (GALAP); Galium aparine, 456 h, 50 g ai/ha, read-out: Solo Glufosinate (50 g ai/ha) % activity): 30% | inhibition at 100 g/ha (Hordeum vulgare (HORVS); Hordeum vulgare, 456 h, 100 g ai/ha, read-out: Solo Glufosinate (100 g ai/ha) % activity): 0% | inhibition at 200 g/ha (Hordeum vulgare (HORVS); Hordeum vulgare, 456 h, 200 g ai/ha, read-out: Solo Glufosinate (200 g ai/ha) % activity): 30% | inhibition at 50 g/ha ([1]; Amaranthus palmeri, 456 h, 50 g ai/ha, read-out: Solo Glufosinate (50 g ai/ha) % activity): 35% | inhibition at 100 g/ha ([1]; Amaranthus palmeri, 456 h, 100 g ai/ha, read-out: Solo Glufosinate (100 g ai/ha) % activity): 30% | inhibition at 200 g/ha ([1]; Amaranthus palmeri, 456 h, 200 g ai/ha, read-out: Solo Glufosinate (200 g ai/ha) % activity): 80% | inhibition at 50 g/ha ([4]; Ambrosia artemisiifolia, 456 h, 50 g ai/ha, read-out: Solo Glufosinate (50 g ai/ha) % activity): 40% | inhibition at 50 g/ha ([2]; Echinochloa crus-galli, 456 h, 50 g ai/ha, read-out: Solo Glufosinate (50 g ai/ha) % activity): 10% | inhibition at 100 g/ha ([2]; Echinochloa crus-galli, 456 h, 100 g ai/ha, read-out: Solo Glufosinate (100 g ai/ha) % activity): 25% | inhibition at 200 g/ha ([2]; Echinochloa crus-galli, 456 h, 200 g ai/ha, read-out: Solo Glufosinate (200 g ai/ha) % activity): 70% | inhibition at 50 g/ha ([3]; Amaranthus tuberculatus, 456 h, 50 g ai/ha, read-out: Solo Glufosinate (50 g ai/ha) % activity): 40% | inhibition at 100 g/ha ([3]; Amaranthus tuberculatus, 456 h, 100 g ai/ha, read-out: Solo Glufosinate (100 g ai/ha) % activity): 70% | inhibition at 200 g/ha ([3]; Amaranthus tuberculatus, 456 h, 200 g ai/ha, read-out: Solo Glufosinate (200 g ai/ha) % activity): 90%
